Among the data in ChEMBL document CHEMBL1124907, “Synthesis and antiviral activity of some 3'-C-difluoromethyl and 3'-deoxy-3'-C-fluoromethyl nucleosides” (J Med Chem, 1990) are IC50 values, retold here.

In brackets after ≈: the same amount, converted by molar mass.

In one test the test system is CV-1. The test can be described thus: Inhibitory effect on Varicella zoster virus in CV-1 cells. It counts as functional, cell-based, Cercopithecidae. Particulars: Chlorocebus aethiops.
Another test deals with MT4. Kind of test: Inhibitory effect on human immunodeficiency virus type-1 (HIV-1) in MT-4 cells. It counts as functional. The note with it: read-out: ID50 (the source's name).

In the test with CV-1, `O=c1[nH]c(=O)n(C2O[C@H](CO)[C@H](CF)[C@@H]2F)cc1I` (some centres not stated) returned an IC50 of 5.3 µg/mL (≈ 13.7 µM).

In the case of `Cc1cn([C@H]2C[C@H](F)[C@@H](CO)O2)c(=O)[nH]c1=O` [ALOVUDINE], the IC50 in the test on MT4 stood at 50 nM.
